Assay results from ChEMBL document CHEMBL1201862, “PubChem BioAssay data set” (2004).
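Following 48 hours of exposure in 96-well plates, responses at five concentrations were used to interpolate endpoints linearly. At the GI50, growth is halved.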 The source made the active and inactive calls. Cut-off read from the data, not from the text of the source: active = GI50 up to about 1.1 µM and inactive = higher.

Tests used:
Assay in all cases: DTP human tumour cell line panel, 48 h
[1] = tested on: OVCAR-4
[2] = tested on: PC-3
[3] = tested on: TK-10
[4] = tested on: BT-549
[5] = tested on: NCI-H522
[6] = tested on: HCT-116
[7] = tested on: SR
[8] = tested on: SK-MEL-2
[9] = tested on: SF-295
[10] = tested on: LOX IMVI
[11] = tested on: MDA-MB-435
[12] = tested on: OVCAR-3
[13] = tested on: NCI-H460
[14] = tested on: RPMI-8226
[15] = tested on: NCI-H226
[16] = tested on: SW-620
[17] = tested on: SN12C
[18] = tested on: CCRF-CEM
[19] = tested on: NCI-H23
[20] = tested on: A549
[21] = tested on: MDA-MB-231
[22] = tested on: ACHN
[23] = tested on: EKVX
[24] = tested on: 786-0
[25] = tested on: NCI/ADR-RES
[26] = tested on: SF-539
[27] = tested on: SF-268
[28] = tested on: HT-29
[29] = tested on: DU-145
[30] = tested on: HCC 2998
[31] = tested on: SK-OV-3
[32] = tested on: SK-MEL-5
[33] = tested on: Hs-578T
[34] = tested on: SK-MEL-28
[35] = tested on: OVCAR-5
[36] = tested on: SNB-75
[37] = tested on: HOP-62
[38] = tested on: A498
[39] = tested on: M14
[40] = tested on: HL-60
[41] = tested on: SNB-19
[42] = tested on: OVCAR-8
[43] = tested on: UACC-62
[44] = tested on: T47D
[45] = tested on: UACC-257
[46] = tested on: HCT-15
[47] = tested on: U-251
[48] = tested on: UO-31
[49] = tested on: CAKI-1
[50] = tested on: MOLT-4
[51] = tested on: IGROV-1
[52] = tested on: COLO 205
[53] = tested on: RXF 393
[54] = tested on: KM12
[55] = tested on: HOP-92
[56] = tested on: MCF7
[57] = tested on: K562

Question: Which results are given for `Nc1ncnc2c1ncn2[C@@H]1O[C@H](COC(c2ccccc2)(c2ccccc2)c2ccccc2)[C@@H](OC(=S)Oc2ccccc2)[C@@H]1F`?
Answer: GI50 [1]: 9.08 µM (inactive); GI50 [2]: 3.88 µM (inactive); GI50 [3]: 17.6 µM (inactive); GI50 [4]: 4.95 µM (inactive); GI50 [5]: 2.24 µM (inactive); GI50 [6]: 3.81 µM (inactive); GI50 [7]: 2.72 µM (inactive); GI50 [8]: 5.47 µM (inactive); GI50 [9]: 7.98 µM (inactive); GI50 [10]: 3.88 µM (inactive); GI50 [11]: 4.03 µM (inactive); GI50 [12]: 4.55 µM (inactive); GI50 [13]: 13.1 µM (inactive); GI50 [14]: 3.49 µM (inactive); GI50 [15]: 11.4 µM (inactive); GI50 [16]: 4.47 µM (inactive); GI50 [17]: 4.46 µM (inactive); GI50 [18]: 2.5 µM (inactive); GI50 [19]: 3.94 µM (inactive); GI50 [20]: 15 µM (inactive); GI50 [21]: 10.7 µM (inactive); GI50 [22]: 10.7 µM (inactive); GI50 [23]: 12.3 µM (inactive); GI50 [24]: 4.58 µM (inactive); GI50 [25]: 4.16 µM (inactive); GI50 [26]: 8.99 µM (inactive); GI50 [27]: 3.66 µM (inactive); GI50 [28]: 6.67 µM (inactive); GI50 [29]: 15.1 µM (inactive); GI50 [30]: 14 µM (inactive); GI50 [31]: 14.1 µM (inactive); GI50 [32]: 4.89 µM (inactive); GI50 [33]: 6.28 µM (inactive); GI50 [34]: 15.2 µM (inactive); GI50 [35]: 19.1 µM (inactive); GI50 [36]: 14.8 µM (inactive); GI50 [37]: 15.5 µM (inactive); GI50 [38]: 18.3 µM (inactive); GI50 [39]: 5.53 µM (inactive); GI50 [40]: 3.18 µM (inactive); GI50 [41]: 11.5 µM (inactive); GI50 [42]: 3.37 µM (inactive); GI50 [43]: 13.7 µM (inactive); GI50 [44]: 8.2 µM (inactive); GI50 [45]: 14.6 µM (inactive); GI50 [46]: 3.37 µM; GI50 [47]: 10.2 µM (inactive); GI50 [48]: 4.16 µM (inactive); GI50 [49]: 9.73 µM (inactive); GI50 [50]: 2.51 µM (inactive); GI50 [51]: 3.23 µM (inactive); GI50 [52]: 12.4 µM (inactive); GI50 [53]: 2.82 µM (inactive); GI50 [54]: 4.72 µM (inactive); GI50 [55]: 8.43 µM (inactive); GI50 [56]: 3.82 µM (inactive); GI50 [57]: 3.34 µM (inactive)
